Experimental data published in publication PMC6514705, “QuinoxalineTacrine QT78, a Cholinesterase Inhibitor as a Potential Ligand for Alzheimer’s Disease Therapy” (Molecules, 2019).

Legend:
[1] = in vitro; format: cell-based; conditions: human
Procedure: The human hepatoma HepG2 cell line was kindly provided by the IdiPAZ Institute for Health Research (Madrid, Spain). They were cultured in Eagle´s minimum essential medium (EMEM) supplemented with 15 nonessential amino acids, 1 mM sodium pyruvate, 10 % heat-inactivated FBS, 100 units/mL penicillin, and 100 µg/mL streptomycin (reagents from Invitrogen, Madrid, Spain). […] Culture media were changed every 2 days. […] For assays, cells were subcultured in 96-well plates at a seeding density of 1 × 10^5 cells per well.
MTT reduction was performed as described for both HepG2 and SH-SY5Y human cell lines. Briefly, 50 µL of the MTT labeling reagent, at a final concentration of 0.5 mg/mL, was added. […] Colorimetric determination of MTT reduction was measured in an ELISA microplate reader at 540 nm. Non-treated cells were considered controls and were taken as 100% viability.

[2] = test system: SH-SY5Y cells; test: Neuroprotection in SH-SY5Y cells against okadaic acid (OA) toxicity (MTT); format: cell-based, human; conditions: 1 μM compound, compared with lower concentrations
Procedure: (§1) Finally, following the protocols described in the Supporting Information, we evaluated the neuroprotective profile of QT78 against two toxic insults related to neurodegeneration, using melatonin (10 nM) as a reference compound: (a) a model of reactive oxygen species (ROS) generation, based on the cocktail of the mitochondrial respiratory chain blockers rotenone and oligomycin A (R/O), and (b) hyperphosphorylation of tau protein using okadaic acid (OA), a well-known protein phosphatase inhibitor.
(§2) Human SH-SY5Y cells were maintained in a 1:1 mixture of Nutrient Mixture F-12 and Eagle´s minimum essential medium (EMEM) supplemented with 15 nonessential amino acids, 1 mM sodium pyruvate, 10% heat-inactivated FBS, 100 units/mL penicillin, and 100 μg/mL streptomycin. Cultures were seeded into flasks containing supplemented medium and maintained at 37 °C in a humidified atmosphere of 5% CO2 and 95% air. For assays, SH-SY5Y cells were sub-cultured in 96-well plates at a seeding density of 5 × 10^4 cells per well for 2 days. […]
(§3) MTT reduction was performed as described for both HepG2 and SH-SY5Y human cell lines. […] Colorimetric determination of MTT reduction was measured in an ELISA microplate reader at 540 nm. […]

[3] = molecular target: T1, BuChE from human serum (Homo sapiens, UniProt P06276); test: Inhibition of human BuChE (Ellman's assay); format: biochemical; conditions: 20 min preincubation at 37 °C, pH 8.0, read-out: IC50 (hBuChE)
T1 construct: BuChE from human serum (Sigma-Aldrich, Milan, Italy); purchased Sigma-Aldrich, Milan, Italy; host or cells: human serum
Procedure: (§4) Next, the in vitro inhibition of human acetylcholinesterase (hAChE) and human butyrylcholinesterase (hBuChE) was assessed according to the method of Ellman
(§5) The ability of QT78 to inhibit human ChE activity was assessed using Ellman’s assay. A Jasco V-530 double beam spectrophotometer connected to a HAAKE DC30 thermostating system (Thermo Haake, Vreden, Germany) was used. […] Either 50 µL of a solution of the tested compound at increasing concentrations or 50 µL of solvent (methanol or water) were added to the assay solution and preincubated at 37 °C with the enzyme for 20 min before the addition of substrate. […] In parallel, blanks containing all components except the enzyme were prepared to account for the non-enzymatic hydrolysis of the substrate. The reaction rates were compared and the percentage of inhibition due to the presence of test compound was calculated. Each concentration was analyzed in duplicate/triplicate. The percentage of inhibition of the enzyme activity due to the presence of inhibitor was calculated. Inhibition plots were obtained for each compound by plotting the percentage of inhibition versus the logarithm of inhibitor concentration in the assay solution. The linear regression parameters were determined for each curve and the IC50 extrapolated.

[4] = test system: SH-SY5Y cells; test: Neuroprotection in SH-SY5Y cells against rotenone/oligomycin A (R/O) toxicity (MTT); format: cell-based, human; conditions: 1 μM compound, compared with lower concentrations
Procedure: as §1, §2, §3

[5] = molecular target: T2, human recombinant AChE (Homo sapiens, UniProt P22303); test: Inhibition of human AChE (Ellman's assay); format: biochemical; conditions: 20 min preincubation at 37 °C, pH 8.0, read-out: IC50 (hAChE)
T2 construct: purchased Sigma-Aldrich, Milan, Italy
Procedure: as §4, §5

T2 sequence (P22303 32-614): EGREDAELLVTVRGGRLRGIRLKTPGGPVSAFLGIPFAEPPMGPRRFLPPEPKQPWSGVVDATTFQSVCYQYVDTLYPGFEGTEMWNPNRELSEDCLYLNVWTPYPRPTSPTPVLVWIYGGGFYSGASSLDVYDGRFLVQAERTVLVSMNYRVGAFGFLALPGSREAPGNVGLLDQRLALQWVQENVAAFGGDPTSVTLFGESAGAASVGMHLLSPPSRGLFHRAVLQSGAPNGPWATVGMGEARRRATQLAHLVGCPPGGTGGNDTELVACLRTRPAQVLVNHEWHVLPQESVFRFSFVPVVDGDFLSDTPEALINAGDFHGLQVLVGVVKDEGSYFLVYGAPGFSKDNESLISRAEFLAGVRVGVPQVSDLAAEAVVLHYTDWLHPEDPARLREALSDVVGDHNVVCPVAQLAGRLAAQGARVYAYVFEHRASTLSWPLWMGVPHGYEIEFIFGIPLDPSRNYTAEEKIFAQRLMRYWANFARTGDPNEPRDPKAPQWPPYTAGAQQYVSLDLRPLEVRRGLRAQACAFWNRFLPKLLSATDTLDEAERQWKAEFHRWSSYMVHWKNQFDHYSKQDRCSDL
T1 sequence (P06276 29-602): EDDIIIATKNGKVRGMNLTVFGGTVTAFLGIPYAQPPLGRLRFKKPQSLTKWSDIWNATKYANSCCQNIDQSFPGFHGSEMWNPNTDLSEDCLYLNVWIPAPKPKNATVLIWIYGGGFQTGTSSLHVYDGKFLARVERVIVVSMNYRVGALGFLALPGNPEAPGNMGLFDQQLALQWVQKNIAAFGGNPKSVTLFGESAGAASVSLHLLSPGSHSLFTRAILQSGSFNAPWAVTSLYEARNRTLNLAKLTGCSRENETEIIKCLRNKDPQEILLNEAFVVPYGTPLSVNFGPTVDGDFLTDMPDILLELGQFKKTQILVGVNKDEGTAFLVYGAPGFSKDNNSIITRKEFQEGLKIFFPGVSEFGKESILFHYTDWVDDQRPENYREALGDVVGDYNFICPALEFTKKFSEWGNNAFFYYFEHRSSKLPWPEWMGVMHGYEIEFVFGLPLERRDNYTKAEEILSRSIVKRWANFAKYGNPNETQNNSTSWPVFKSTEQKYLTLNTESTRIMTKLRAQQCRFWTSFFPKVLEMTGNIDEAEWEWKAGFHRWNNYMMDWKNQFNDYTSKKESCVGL

Q: Which results are given for `Nc1c2c(nc3nc4ccccc4nc13)CCCC2` [QT78, 1,2,3,4-tetrahydroquinolino[2,3-b]quinoxalin-12-amine]?
A: viability at 24 h, 1 µM [1]: 96.7 ± 2.14%; viability at 24 h, 3 µM [1]: 97.6 ± 2.2%; viability at 24 h, 10 µM [1]: 97.1 ± 1.64%; viability at 24 h, 30 µM [1]: 95.1 ± 1.5%; viability at 24 h, 100 µM [1]: 90.5 ± 1.86%; viability at 24 h, 300 µM [1]: 78.1 ± 0.94%; viability at 24 h, 1000 µM [1]: 68.3 ± 2.92%; protective capacity against OA [2]: the protective capacity decreased; IC50 [3]: 6.79 ± 0.33 µM; protective capacity against R/O [4]: the protective capacity decreased; IC50 [5]: 22 ± 1.3 µM
